Test results reported in patent US8163756B2 (priority 2004, dated 2012).

Columns and labels:
Assay type in all cases: biochemical
Abl kinase = target: T1, Abl kinase (Homo sapiens, UniProt P00519); experiment: Abl kinase assay A1 (pyruvate kinase/lactate dehydrogenase coupled, spectrophotometric); details: Method A1; read-out: Abl Data (IC50)
T1 sequence (P00519 229-512): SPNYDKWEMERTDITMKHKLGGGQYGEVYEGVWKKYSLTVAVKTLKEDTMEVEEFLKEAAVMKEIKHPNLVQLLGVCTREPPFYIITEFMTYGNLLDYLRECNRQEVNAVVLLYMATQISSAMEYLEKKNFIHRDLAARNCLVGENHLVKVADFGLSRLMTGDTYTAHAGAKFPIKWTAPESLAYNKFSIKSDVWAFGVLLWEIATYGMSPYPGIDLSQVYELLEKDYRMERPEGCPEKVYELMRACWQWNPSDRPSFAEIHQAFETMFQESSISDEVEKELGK
Description: (§1) IC50 values were calculated from a series of percent inhibition values determined at a range of inhibitor concentrations using software routines as implemented in the GraphPad Prism software package.

B-Raf(V599E) kinase = B-Raf(V599E) kinase (Homo sapiens, UniProt P15056, V600E); experiment: B-Raf(V599E) kinase assay B1 (construct 1, MEK1 substrate, coupled spectrophotometric)
Chain of B-Raf(V599E) kinase (P15056 with tags, fused parts or gaps V600E): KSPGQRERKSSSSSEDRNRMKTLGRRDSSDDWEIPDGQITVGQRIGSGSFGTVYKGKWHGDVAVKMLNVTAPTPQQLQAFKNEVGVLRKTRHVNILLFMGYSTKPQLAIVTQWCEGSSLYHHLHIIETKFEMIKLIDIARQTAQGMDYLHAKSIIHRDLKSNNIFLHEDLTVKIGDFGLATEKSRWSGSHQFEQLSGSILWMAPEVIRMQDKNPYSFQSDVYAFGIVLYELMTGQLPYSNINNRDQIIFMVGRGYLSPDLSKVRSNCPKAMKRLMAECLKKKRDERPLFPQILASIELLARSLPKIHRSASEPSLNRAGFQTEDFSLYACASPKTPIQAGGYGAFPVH
Description: The test compounds were incubated with the reaction mixtureat 30° C. for 2 h. […] The reaction rate was calculated using the […] time frame. […] IC50 values were calculated from a series of percent inhibition values determined at a range of inhibitor concentrations using software routines as implemented in the GraphPad Prism software package.

KDR kinase = KDR kinase (Homo sapiens, UniProt P35968, DEL940-989/E990V); experiment: KDR kinase assay K1 (pyruvate kinase/lactate dehydrogenase coupled, spectrophotometric); details: Method K1; read-out: KDR Data (IC50)
Chain of KDR kinase (P35968 with tags, fused parts or gaps DEL940-989/E990V): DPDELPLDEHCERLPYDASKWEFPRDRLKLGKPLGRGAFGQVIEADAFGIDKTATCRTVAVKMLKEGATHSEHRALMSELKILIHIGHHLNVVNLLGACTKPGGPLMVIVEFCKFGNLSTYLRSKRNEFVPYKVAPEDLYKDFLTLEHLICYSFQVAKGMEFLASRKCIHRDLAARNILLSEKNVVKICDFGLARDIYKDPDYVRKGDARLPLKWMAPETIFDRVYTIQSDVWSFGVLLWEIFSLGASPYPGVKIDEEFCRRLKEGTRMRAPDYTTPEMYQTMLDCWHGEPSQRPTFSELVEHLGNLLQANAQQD
Description: as §1

[1] = target: phosphorylated p-38-alpha kinase (Homo sapiens, UniProt Q16539); experiment: P-38 alpha kinase assay P1 (coupled spectrophotometric, 2 h pre-incubation); details: method P1 (2 h pre-incubation); read-out: P-38 Data
Chain of phosphorylated p-38-alpha kinase (Q16539 1-360 isoform Q16539-2): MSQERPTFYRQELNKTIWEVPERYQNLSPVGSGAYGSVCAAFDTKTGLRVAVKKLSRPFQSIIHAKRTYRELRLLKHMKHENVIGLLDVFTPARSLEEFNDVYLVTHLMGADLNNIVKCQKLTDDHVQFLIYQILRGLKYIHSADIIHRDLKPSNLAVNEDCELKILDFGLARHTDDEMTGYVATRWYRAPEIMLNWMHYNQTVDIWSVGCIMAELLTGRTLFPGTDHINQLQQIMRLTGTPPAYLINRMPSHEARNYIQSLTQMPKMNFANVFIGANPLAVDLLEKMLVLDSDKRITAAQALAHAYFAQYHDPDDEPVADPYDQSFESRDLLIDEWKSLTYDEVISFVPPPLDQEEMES

| SMILES | IC50 (Abl kinase) [nM] | IC50 (B-Raf(V599E) kinase) [nM] | IC50 (KDR kinase) [nM] | IC50 [1] [nM] |
| --- | --- | --- | --- | --- |
| CC(C)(C)c1cc(NC(=O)Nc2cccc(Cl)c2Cl)n(-c2cccc(C(C)(C)O)c2)n1 [Example 2, 1-{3-t-butyl-1-[3-(2-hydroxypropan-2-yl)phenyl]-1H-pyrazol-5-yl}-3-(2,3-dichlorophenyl)urea] | 2000 | 19 | 460 |  |
| CNC(=O)C1NCCc2cc(-n3nc(C(C)(C)C)cc3NC(=O)Nc3cccc(Cl)c3Cl)ccc21 (stereo not shown) [Example 204, 1-(3-t-butyl-1-(1-(methylcarbamoyl)-1,2,3,4-tetrahydroisoquinolin-6-yl)-1H-pyrazol-5-yl)-3-(2,3-dichlorophenyl)urea] |  |  | 99 | 9 |
| CC(C)(C)c1cc(NC(=O)Nc2ccsc2)n(-c2ccc3c(c2)CCC(=O)N3)n1 [Example 316, 1-(3-t-butyl-1-(2-oxo-1,2,3,4-tetrahydro-quinolin-6-yl)-1H-pyrazol-5-yl)-3-(thiophen-3-yl)urea] |  | 66 | 12900 |  |
| CC(C)(C)c1cc(NC(=O)Nc2cc(F)c(F)cc2F)n(-c2cccc(C(=N)N)c2)n1 [Example 214, 1-(3-t-butyl-1-(3-carbamimidoylphenyl)-1H-pyrazol-5-yl)-3-(2,4,5-trifluorophenyl)urea] |  |  | 840 |  |
| CC(C)(C)c1cc(NC(=O)Nc2cccc(Cl)c2Cl)n(-c2cccc(C(=N)NO)c2)n1 [Example 43, 1-{1-[3-(N-hydroxycarbamimidoyl)phenyl]-3-t-butyl-1H-pyrazol-5-yl}-3-(2,3-dichlorophenyl)-urea] |  | 4.3 | 360 | 13 |
| CC(C)(C)c1cc(NC(=O)Nc2cccc(F)c2F)n(-c2cccc(CO)c2)n1 [Example 220, 1-{3-t-butyl-1-[3-(hydroxymethyl)phenyl]-1H-pyrazol-5-yl}-3-(2,3-difluorophenyl)urea] |  | 33 | 950 |  |
| CC1(O)CCN(C(=O)Cc2ccc(-n3nc(C(C)(C)C)cc3NC(=O)Nc3cccc(Cl)c3Cl)cc2)CC1 [Example 496, 1-(3-t-butyl-1-{4-[2-(4-hydroxy-4-methylpiperidin-1-yl)-2-oxoethyl]phenyl}-1H-pyrazol-5-yl)-3-(2,3-dichlorophenyl)urea] |  | 26 | 470 | 5 |
| CC(C)(C)c1cc(NC(=O)Nc2cc(F)cc(F)c2F)n(-c2cc(CNC(N)=O)c3ccccc3c2)n1 [Example 296] |  | 3 | 200 |  |
| CC(C)(C)c1cc(NC(=O)Nc2cc(F)c(F)cc2F)n(-c2cc(CNC(N)=O)c3ccccc3c2)n1 [Example 297] |  | 3.2 | 270 |  |
| CC(C)(C)c1cc(NC(=O)NC2CCCCC2)n(-c2ccc3c(c2)CCC(=O)N3)n1 [Example 318, 1-(3-t-butyl-1-(2-oxo-1,2,3,4-tetrahydroquinolin-6-yl)-1H-pyrazol-5-yl)-3-cyclohexylurea] |  | 29 | 10100 |  |
| CC(C)(C)c1cc(NC(=O)Nc2cccc(Cl)c2Cl)n(-c2cccc(Cn3c(=O)[nH]n(-c4ccccc4)c3=O)c2)n1 [Example 273, 1-(3-t-butyl-1-{3-[(3,5-dioxo-1-phenyl-1,2,4-triazolidin-4-yl)methyl]phenyl}-1H-pyrazol-5-yl)-3-(2,3-dichlorophenyl)urea] |  | 8.7 | 1700 | 34 |
| CC(C)(C)c1cc(NC(=O)Nc2ccccc2)n(-c2ccc3ncccc3c2)n1 [Example 282, 1-[3-t-butyl-1-(quinolin-6-yl)-1H-pyrazol-5-yl]-3-phenylurea] |  | 41 | 2400 |  |
| CC(C(N)=O)c1ccc(-n2nc(C(C)(C)C)cc2NC(=O)Nc2cccc(Cl)c2Cl)cc1 (stereo not shown) [Example 203, 1-(1-(4-(1-amino-1-oxopropan-2-yl)phenyl)-3-t-butyl-1H-pyrazol-5-yl)-3-(2,3-dichlorophenyl)urea] |  |  | 160 | 17 |
| CC(C)(C)c1cc(NC(=O)Nc2cccc(Cl)c2Cl)n(-c2ccc(CC(=O)O)cc2)n1 [Example 383] |  | 8.1 | 280 | 7 |
| CC(C)(C)c1cc(NC(=O)Nc2cccc(Cl)c2Cl)n(-c2ccc3c(c2)CCN(S(C)(=O)=O)CC3)n1 [Example 336, 1-(3-t-butyl-1-(3-(methylsulfonyl)-2,3,4,5-tetrahydro-1H-benzo[d]azepin-7-yl)-1 H-pyrazol-5-yl)-3-(2,3-dichlorophenyl)urea] |  | 2 | 170 | 11 |
| COc1ccc(-n2nc(C(C)(C)C)cc2NC(=O)Nc2cccc(F)c2F)cc1 [Example 241, 1-[3-t-butyl-1-(4-methoxyphenyl)-1H-pyrazol-5-yl]-3-(2,3-difluorophenyl)urea] |  | 24 | 570 | 220 |

| SMILES | IC50 (Abl kinase) [nM] | IC50 (B-Raf(V599E) kinase) [nM] | IC50 (KDR kinase) [nM] | IC50 [1] [nM] |
| --- | --- | --- | --- | --- |
| CC(C)(C)c1cc(NC(=O)Nc2ccc(F)c(F)c2F)n(-c2ccc3ncccc3c2)n1 [Example 285, 1-(3-t-butyl-(quinolin-6-yl)-1H-pyrazol-5-yl)-3-(2,3,4-trifluorophenyl)urea] |  | 5.1 | 380 |  |
| CCOC(=O)CCc1cccc(-n2nc(C(C)(C)C)cc2NC(=O)Nc2cccc(Cl)c2Cl)c1 [Example 264, 3-(3-{3-t-butyl-5-[3-(2,3-dichlorophenyl)ureido]-1H-pyrazol-1-yl}phenyl)propionic acid ethyl ester] |  | 7.3 | 140 | 82 |
| CC(C)(C)c1cc(NC(=O)Nc2cccc(Cl)c2)n(-c2cccc(CN)c2)n1 [Example 227, 1-{1-[3-(aminomethyl)phenyl]-3-t-butyl-1H-pyrazol-5-yl}-3-(3-chloro-phenyl)urea] |  | 61 | 9300 |  |
| CC(C)(C)c1cc(NC(=O)Nc2cccc(Cl)c2Cl)n(-c2ccc3c(c2)CN(C(=N)N)CC3)n1 [Example 130, 1-[3-t-butyl-1-(2-carbamimidoyl-1,2,3,4-tetrahydroisoquinolin-7-yl)-1H-pyrazol-5-yl]-3-(2,3-dichlorophenyl)urea] | 230 |  | 320 |  |
| CC(C)(C)c1cc(NC(=O)Nc2cccc(Cl)c2Cl)n(-c2ccc3c(c2)CC(C(=O)O)NC3)n1 (stereo not shown) [Example 205] |  |  | 280 | 29 |
| CC(C)(C)c1cc(NC(=O)Nc2cccc(Cl)c2Cl)n(-c2ccc(CC(=O)N3CCS(=O)(=O)CC3)cc2)n1 [Example 495] |  | 55 | 1500 |  |
| CC(C(=O)O)c1ccc(-n2nc(C(C)(C)C)cc2NC(=O)Nc2cccc(Cl)c2Cl)cc1 (stereo not shown) [Example 202, 2-(4-(3-t-butyl-5-(3-(2,3-dichlorophenyl)ureido)-1H-pyrazol-1-yl)phenyl)propanoic acid] |  |  | 230 | 12 |
| CC(C)(C)c1cc(NC(=O)Nc2cccc(Cl)c2Cl)n(-c2ccc3c(c2)CCN3)n1 [Example 106, 1-(3-t-butyl-1-(indolin-5-yl)-1H-pyrazol-5-yl)-3-(2,3-dichlorophenyl)urea] |  | 3.6 | 120 | 12 |
| CC(C)(C)c1cc(NC(=O)Nc2cccc(Cl)c2)n(-c2cccc(CCN)c2)n1 [Example 257, 1-{1-[3-(2-aminoethyl)phenyl]-3-t-butyl-1H-pyrazol-5-yl}-3-(3-chlorophenyl)urea] |  | 62 | 6600 |  |
| CC(C)(C)c1cc(NC(=O)Nc2cccc(Cl)c2Cl)n(-c2ccc3c(c2)CCN3S(=O)(=O)C(F)(F)F)n1 [Example 201, 1-(3-t-butyl-1-(1-(trifluoromethylsulfonyl)indolin-5-yl)-1H-pyrazol-5-yl)-3-(2,3-dichlorophenyl)urea] |  |  | 130 | 150 |
| CC(C)(C)c1cc(NC(=O)Nc2cc(F)c(F)cc2F)n(-c2cccc(C#N)c2)n1 [Example 207, 1-(3-t-butyl-1-(3-cyanophenyl)-1H-pyrazol-5-yl)-3-(2,4,5-trifluorophenyl)urea] |  |  | 340 |  |
| CC(C)(C)c1cc(NC(=O)Nc2cccc(Cl)c2Cl)n(-c2ccc3[nH]c(=O)ccc3c2)n1 [Example 155, 1-(3-t-butyl-1-(2-oxo-1,2-dihydroquinolin-6-yl)-1H-pyrazol-5-yl)-3-(2,3-dichlorophenyl)-urea] | 260 | 1.4 |  | 110 |
| CC(C)(C)c1cc(NC(=O)Nc2ccc(Cl)cc2)n(-c2cc(CN)c3ccccc3c2)n1 [Example 68, 1-[1-(4-(aminomethyl)naphthalen-2-yl)-3-t-butyl-1H-pyrazol-5-yl]-3-(4-chlorophenyl)urea] |  | 24 | 1400 |  |
| CC(C)(C)c1cc(NC(=O)Nc2ccccc2)n(-c2ccc3c(c2)CCC(=O)N3)n1 [Example 319, 1-(3-t-butyl-1-(2-oxo-1,2,3,4-tetrahydro-quinolin-6-yl)-1H-pyrazol-5-yl)-3-phenylurea] |  | 32 | 4300 |  |
| CC(Cc1cccc(-n2nc(C(C)(C)C)cc2NC(=O)Nc2cccc(Cl)c2Cl)c1)C(=O)O (stereo not shown) [Example 267, 3-(3-{3-t-butyl-5-[3-(2,3-dichlorophenyl)ureido]-1H-pyrazol-1-yl}-phenyl)-2-methylpropanoic acid] |  | 7.9 | 550 | 12 |
| CC(C)(C)c1cc(NC(=O)Nc2cccc(F)c2F)n(-c2ccc3c(c2)CCN3)n1 [Example 307, 1-(3-t-butyl-1-(indolin-5-yl)-1H-pyrazol-5-yl)-3-(2,3-difluorophenyl)urea] |  | 10 | 720 |  |
